Tests used:
[1] = tested on: giant foxtail; test: Test B pre/postemergence giant foxtail; type: in vivo, Setaria faberii
Procedure, shortened: (§1)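 Herbicidal effect was estimated by eye on a ten-point control scale after plants spent twelve to sixteen days in a greenhouse following soil or foliar treatment. Foliar sprays targeted plants at one to four leaves; all doses were formulated in a non-phytotoxic solvent with surfactant.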

[2] = tested on: surinam grass; test: Test B pre/postemergence surinam grass; type: in vivo, Brachiaria decumbens
Procedure, shortened: as §1

[3] = tested on: rice; test: Test B flood test rice; type: in vivo, Oryza sativa
Procedure, shortened: (§2)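 Each value is a visual injury score relative to controls, with 10 meaning complete control and 0 no effect. Evaluation took place twelve to sixteen days after the 2-leaf-stage plants were treated and kept in the greenhouse.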

[4] = tested on: velvetleaf; test: Test B pre/postemergence velvetleaf; type: in vivo, Abutilon theophrasti
Procedure, shortened: as §1

[5] = tested on: morningglory; test: Test B pre/postemergence morningglory; type: in vivo, Ipomoea hederacea
Procedure, shortened: as §1

[6] = tested on: bedstraw; test: Test B pre/postemergence bedstraw; type: in vivo, Galium aparine; conditions: Postemergence
Procedure, shortened: as §1

[7] = tested on: sugar beet; test: Test B pre/postemergence sugar beet; type: in vivo, Beta vulgaris
Procedure, shortened: as §1

[8] = tested on: duck salad; test: Test B flood test duck salad; type: in vivo, Heteranthera limosa
Procedure, shortened: as §2

[9] = tested on: soybean; test: Test B pre/postemergence soybean; type: in vivo, Glycine max
Procedure, shortened: as §1

[10] = tested on: smallflower flatsedge; test: Test B flood test smallflower flatsedge; type: in vivo, Cyperus difformis
Procedure, shortened: as §2

[11] = tested on: purple nutsedge; test: Test B pre/postemergence purple nutsedge; type: in vivo, Cyperus rotundus
Procedure, shortened: as §1

[12] = tested on: rape; test: Test B pre/postemergence rape; type: in vivo, Brassica napus
Procedure, shortened: as §1

[13] = tested on: blackgrass; test: Test B pre/postemergence blackgrass; type: in vivo, Alopecurus myosuroides
Procedure, shortened: as §1

[14] = tested on: bamyardgrass; test: Test B flood test barnyardgrass; type: in vivo, Echinochloa crus-galli
Procedure, shortened: as §2

[15] = tested on: corn; test: Test B pre/postemergence corn; type: in vivo, Zea mays
Procedure, shortened: as §1

[16] = tested on: pigweed; test: Test B pre/postemergence pigweed; type: in vivo, Amaranthus retroflexus
Procedure, shortened: as §1

[17] = Postemergence, Rate 125 g/ha, scale 0 to 10, 0 is no effect, 10 is complete control
[18] = Preemergence, Rate 62 g/ha, scale of 0 to 10 where 0 is no effect and 10 is complete control
[19] = Preemergence, Rate 250 g/ha, scale of 0 to 10 where 0 is no effect and 10 is complete control
[20] = Preemergence, Rate 500 g/ha, scale of 0 to 10 where 0 is no effect and 10 is complete control
[21] = Rate 62 g/ha, Postemergence, scale 0 to 10 (0 no effect, 10 complete control)
[22] = Rate 250 g/ha, Postemergence, scale of 0 to 10 where 0 is no effect and 10 is complete control
[23] = Rate 500 g/ha, Postemergence, scale 0 to 10, 0 no effect, 10 complete control
[24] = Rate 62 g/ha, headed Pre-emergence (flood test species), scale 0 to 10 (0 no effect, 10 complete control)
[25] = Rate 125 g/ha, Pre-emergence, flood test species, scale 0 to 10 where 0 is no effect and 10 is complete control
[26] = Rate 250 g/ha, Pre-emergence, flood-test species, scale 0 to 10, 0 is no effect, 10 is complete control
[27] = Rate 500 g/ha, Pre-emergence, flood test species, scale 0 to 10 (0 no effect, 10 complete control)

## CC(C)N(C(=O)n1oc(=O)n(C2CC3CCC2C3)c1=O)c1ccc(F)cc1F (centres unmarked) [Compound 326]
[1]; [17]
  Plant response rating, Giant foxtail: 0
[1]; [18]
  Giant foxtail plant response rating: 0
[1]; Preemergence, Rate 125 g/ha
  Giant foxtail plant response rating (0 to 10 scale): 2
[1]; [19]
  Giant foxtail plant response rating: 8
[1]; [20]
  Giant foxtail plant response rating: 9
[1]; [21]
  Giant foxtail plant response rating: 0
[1]; [22]
  Plant response rating, Giant foxtail: 0
[1]; [23]
  Plant response rating, Giant foxtail: 2
[2]; [17]
  Plant response rating, B. signalgrass: 0
[2]; [18]
  B. signalgrass plant response rating: 0
[2]; Preemergence, Rate 125 g/ha
  B. signalgrass plant response rating (0 to 10 scale, 0 is no effect, 10 is complete control): 0
[2]; [19]
  B. signalgrass plant response rating: 3
[2]; [20]
  B. signalgrass plant response rating: 7
[2]; [21]
  B. signalgrass plant response rating: 0
[2]; [22]
  Plant response rating, B. signalgrass: 0
[2]; [23]
  Plant response rating, B. signalgrass: 0
[3]; [24]
  Rice plant response rating: 0
[3]; [25]
  Rice plant response rating: 0
[3]; [26]
  Rice plant response rating: 0
[3]; [27]
  Rice plant response rating: 0
[4]; [17]
  Plant response rating, Velvetleaf: 0
[4]; [18]
  Velvetleaf plant response rating: 0
[4]; Preemergence, Rate 125 g/ha
  Velvetleaf plant response rating (0 to 10 scale): 0
[4]; [19]
  Velvetleaf plant response rating: 0
[4]; [20]
  Velvetleaf plant response rating: 0
[4]; [21]
  Velvetleaf plant response rating: 0
[4]; [22]
  Plant response rating, Velvetleaf: 2
[4]; [23]
  Plant response rating, Velvetleaf: 2
[5]; [17]
  Plant response rating, Morningglory: 7
[5]; [18]
  Morningglory plant response rating: 0
[5]; Preemergence, Rate 125 g/ha
  Morningglory plant response rating (0 to 10 scale): 0
[5]; [19]
  Morningglory plant response rating: 0
[5]; [20]
  Morningglory plant response rating: 0
[5]; [21]
  Morningglory plant response rating: 5
[5]; [23]
  Plant response rating, Morningglory: 10
[6]; Rate 125 g/ha, scale 0 to 10, 0 is no effect, 10 is complete control
  Plant response rating, Bedstraw: 5
[6]; Rate 250 g/ha, scale of 0 to 10 where 0 is no effect and 10 is complete control
  Plant response rating, Bedstraw: 7
[7]; [17]
  Plant response rating, Sugarbeets: 0
[7]; [18]
  Sugarbeets plant response rating: 0
[7]; Preemergence, Rate 125 g/ha
  Sugarbeets plant response rating (0 to 10 scale): 0
[7]; [19]
  Sugarbeets plant response rating: 0
[7]; [20]
  Sugarbeets plant response rating: 2
[7]; [21]
  Sugarbeets plant response rating: 0
[7]; [22]
  Plant response rating, Sugarbeets: 0
[7]; [23]
  Plant response rating, Sugarbeets: 0
[8]; [24]
  Ducksalad plant response rating: 0
[8]; [25]
  Ducksalad plant response rating: 0
[8]; [26]
  Ducksalad plant response rating: 0
[8]; [27]
  Ducksalad plant response rating: 0
[9]; [17]
  Plant response rating, Soybean: 5
[9]; [18]
  Soybean plant response rating: 0
[9]; Preemergence, Rate 125 g/ha
  Soybean plant response rating (0 to 10 scale): 0
[9]; [19]
  Soybean plant response rating: 0
[9]; [20]
  Soybean plant response rating: 0
[9]; [21]
  Soybean plant response rating: 3
[9]; [22]
  Plant response rating, Soybean: 5
[9]; [23]
  Plant response rating, Soybean: 6
[10]; [24]
  S. Flatsedge plant response rating: 0
[10]; [25]
  S. Flatsedge plant response rating: 0
[10]; [26]
  S. Flatsedge plant response rating: 0
[10]; [27]
  S. Flatsedge plant response rating: 0
[11]; [17]
  Plant response rating, Nutsedge: 0
[11]; [18]
  Nutsedge plant response rating: 0
[11]; [19]
  Nutsedge plant response rating: 0
[11]; [20]
  Nutsedge plant response rating: 0
[11]; [21]
  Nutsedge plant response rating: 0
[11]; [22]
  Plant response rating, Nutsedge: 0
[11]; [23]
  Plant response rating, Nutsedge: 0
[12]; [17]
  Plant response rating, Rape: 0
[12]; [18]
  Rape plant response rating: 0
[12]; Preemergence, Rate 125 g/ha
  Rape plant response rating (0 to 10 scale): 0
[12]; [19]
  Rape plant response rating: 0
[12]; [20]
  Rape plant response rating: 1
[12]; [21]
  Rape plant response rating: 0
[12]; [22]
  Plant response rating, Rape: 1
[12]; [23]
  Plant response rating, Rape: 3
[13]; [17]
  Plant response rating, Blackgrass: 0
[13]; [18]
  Blackgrass plant response rating: 0
[13]; Preemergence, Rate 125 g/ha
  Blackgrass plant response rating (0 to 10 scale): 5
[13]; [19]
  Blackgrass plant response rating: 7
[13]; [20]
  Blackgrass plant response rating: 8
[13]; [21]
  Blackgrass plant response rating: 0
[13]; [22]
  Plant response rating, Blackgrass: 0
[13]; [23]
  Plant response rating, Blackgrass: 1
[14]; [24]
  Barnyardgrass plant response rating: 0
[14]; [25]
  Barnyardgrass plant response rating: 0
[14]; [26]
  Barnyardgrass plant response rating: 8
[14]; [27]
  Barnyardgrass plant response rating: 9
[15]; [17]
  Plant response rating, Corn: 0
[15]; [18]
  Corn plant response rating: 0
[15]; Preemergence, Rate 125 g/ha
  Corn plant response rating (0 to 10 scale): 0
[15]; [19]
  Corn plant response rating: 0
[15]; [20]
  Corn plant response rating: 2
[15]; [21]
  Corn plant response rating: 0
[15]; [22]
  Plant response rating, Corn: 0
[15]; [23]
  Plant response rating, Corn: 0
[16]; [17]
  Plant response rating, Redroot pigweed: 4
[16]; [18]
  Redroot pigweed plant response rating: 1
[16]; Preemergence, Rate 125 g/ha
  Redroot pigweed plant response rating (0 to 10 scale): 3
[16]; [19]
  Redroot pigweed plant response rating: 6
[16]; [20]
  Redroot pigweed plant response rating: 7
[16]; [21]
  Redroot pigweed plant response rating: 3
[16]; [22]
  Plant response rating, Redroot pigweed: 4
[16]; [23]
  Plant response rating, Redroot pigweed: 7

— patent publication US6737383B1, “Herbicidal oxadiazolidines” (priority 1999, dated 2004)
